Assay results from US9351988B2, “Macrocyclic lactones and use thereof” (UNIVERSITE DE GENEVE, priority 2011, dated 2016).

Columns and labels:
[1] = system: Human colon adenocarcinoma cell line (LS174T); experiment: BrdU incorporation proliferation assay in LS174T cells; format: cell-based; settings: 48 h
Protocol: (§1) Human colon adenocarcinoma cell line (LS174T), human primary colon cancer cells (CC14) and primary metastatic cells (mCC11) were treated with Avermectin B1 (MicroSource Discovery systems, CT, USA), 5 μM. Control cells were treated with equivalent concentration of DMSO. 48 h after treatment, the percentage of BrdU incorporation was calculated for cells treated with Avermectin B1 as compared to control cells as follows: the number of BrdU positive cells over total number of cells expressed as percentage compared to control cells treated with DMSO only. Cells were cultivated in standard conditions (37° C., 5% CO2) in DMEM containing 10% Fetal Calf Serum.
The same assay as described in Example 1 was carried out on human colon adenocarcinoma cell line LS174T where cell samples were either treated with Abamectin (Sigma #31732) or Doramectin (Sigma #33993) at three different concentrations: 0.1, 1 and 5 μM. Control cells were treated with equivalent concentration of DMSO. 48 h after treatment, the percentage of BrdU incorporation was calculated for cells treated with each macrocyclic lactone as compared to control cells as described above.
(§2) The same assay as described in Example 1 was carried out on human primary colon cancer cells (CC14 and CC36) (TNM IV and III, respectively) and primary metastatic cells (mCC11) from the liver of the patient, on the human adenocarcinoma cell lines DLD1, LS174T, and SW180 and on human skin melanoma cell lines MeWo and SKMel2 where cell samples were treated with Ivermectin (Fabron Iberica S.A.U) or Stromectol™ (Merck & Co. Inc.) which is an oral pharmaceutical formulation of semisynthetic Ivermectin (mixture containing at least 90% 5-O-demethyl-22,23-dihydroavermectin A1a and less than 10% 5-O-demethyl-25-de(1-methylpropyl)-22,23-dihydro-25-(1-methylethyl)avermectin A1a, generally referred to as 22,23-dihydroavermectin B1a and B1b, or H2B1a and H2B1b) at different concentrations: 0.5, 1, 2.5, 5 and 10 μM (Ivermectin diluted in DMSO, Stromectol in Ethanol). Control cells were treated with equivalent concentrations of DMSO. 48 h after treatment the level of BrdU incorporation was calculated for cells treated with each macrocyclic lactone as compared to control cells as described above. IC50 values are calculated by interpolation from a dose response curve fitted using PRISM (Graphpad Software).

[2] = system: human primary colon cancer cells (CC14); experiment: BrdU incorporation proliferation assay in CC14 cells; format: cell-based; settings: 48 h
Protocol: as §1
(§3) The same assay as described in Example 1 was carried out on human primary colon cancer cells (CC14 and CC36) (TNM IV and III, respectively) and primary metastatic cells (mCC11) from the liver of the patient where cell samples were treated with Abamectin (Sigma #31732) at three different concentrations: 0.1, 1 and 5 μM. Control cells were treated with equivalent concentrations of DMSO. 48 h after treatment the level of BrdU incorporation was calculated for cells treated with each macrocyclic lactone as compared to control cells as described above.
as §2, with “Control cells were treated with equivalent concentrations of DMSO. 48 h after treatment the level of BrdU incorporation was calculated for cells treated with each macrocyclic lactone as compared to control cells as described above. IC50 values are calculated by interpolation from a dose response curve fitted using PRISM (Graphpad Software).” left out

[3] = system: primary metastatic cells (mCC11); experiment: BrdU incorporation proliferation assay in mCC11 cells; format: cell-based, human; settings: 48 h
Protocol: as §1, §3
as §2, with “Control cells were treated with equivalent concentrations of DMSO. 48 h after treatment the level of BrdU incorporation was calculated for cells treated with each macrocyclic lactone as compared to control cells as described above. IC50 values are calculated by interpolation from a dose response curve fitted using PRISM (Graphpad Software).” left out

[4] = system: human primary colon cancer cells (CC36); experiment: BrdU incorporation proliferation assay in CC36 cells; format: cell-based; settings: 48 h
Protocol: as §1
as §3, with “above. […]” for “above.”

Wnt pathway = experiment: Key Wnt target gene expression by quantitative real time PCR in LS174 cells; format: cell-based, human; settings: 12 h after 5 μM Avermectin B1 (vs DMSO) or dnTCF4 expression (vs control plasmid)
Protocol: Key Wnt target gene expression was determined by quantitative real time PCR in LS174 colon adenocarcinoma cell line expressing a dominant negative TCF4 cDNA (dnTCF4) or 12 h after treatment with 5 μM Avermectin B1 (MicroSource Discovery systems, CT, USA). Control cell samples were treated with equivalent concentrations of DMSO. Cells were cultivated in standard conditions as described in Example 1.
Expression levels of individual genes are shown as a percentage compared to their expression levels in control cells treated with DMSO only in the case of Avermectin B1, or transfected with control plasmid in the case of dnTCF4, and are shown in Table 1 below: […]

[5] = system: human adenocarcinoma cell line DLD1; experiment: BrdU incorporation proliferation assay in DLD1 cells; format: cell-based; settings: DLD1, 0.5, 1, 2.5, 5 and 10 μM, 48 h
Protocol: as §1, with “Serum. […]” for “Serum.”

[6] = system: human adenocarcinoma cell line SW180; experiment: BrdU incorporation proliferation assay in SW180 cells; format: cell-based; settings: SW180, 0.5, 1, 2.5, 5 and 10 μM, 48 h
Protocol: as §1, with “Serum. […]” for “Serum.”

[7] = system: human skin melanoma cell line MeWo; experiment: BrdU incorporation proliferation assay in MeWo cells; format: cell-based; settings: MeWo, 0.5, 1, 2.5, 5 and 10 μM, 48 h
Protocol: as §1, with “Serum. […]” for “Serum.”

[8] = system: human skin melanoma cell line SKMel2; experiment: BrdU incorporation proliferation assay in SKMel2 cells; format: cell-based; settings: SKMel2, 0.5, 1, 2.5, 5 and 10 μM, 48 h
Protocol: as §1, with “Serum. […]” for “Serum.”

[9] = system: human glioblastoma cancer cell lines and cells from primary human glioblastoma tumors; experiment: BrdU incorporation proliferation assay in glioblastoma cells; format: cell-based; settings: 48 h
[10] = system: human DLD1 CC cell xenografts; experiment: Mouse xenografts of human colon cancer (DLD1) cells; format: in vivo, nude NMRI mice; settings: DLD1 xenografts in nude mice, 10 mg/kg; comparable to dnTCF4 (transgenic Wnt inhibition)
Protocol: Six- to eight-week-old female nude NMRI (Naval Medical Research Institute) mice each receive two injections of 10^5-10^6 human DLD1 CC cells on their backs as independent subcutaneous xenografts. As soon as the tumor is palpable (1-2 mm) (usually 7-10 days following xenograft), a range of concentrations of Ivermectin (Fabron Iberica S.A.U) or Abamectin (Sigma #31732) (0 (excipient only), 10, 50 and 100 mg/kg/day) is given by oral gavage combined with corn oil or is administered intra-peritoneally (IP) combined with 2-hydroxypropyl-β-cyclodextrin (Sigma, 45% solution) in a second set of experiments. Tumor size is periodically measured with a caliper. Mice are sacrificed before the tumors approach the legal size limit and the tumors are removed and analysed for proliferation (BrdU assay), apoptosis (Caspase3 assay, Varnat et al., 2009, EMBO Mol. Med., 1, 338-351) and invasion (Varnat et al., 2010, above). Control mice are treated with carrier-only control cells, or cells expressing a dominant-negative TCF4 construct (dnTCF4), which acts to actively repress Wnt-TCF signalling.

## Abamectin
[1]; LS174T, 0.1, 1 and 5 μM
  proliferation (BrdU incorporation), dose-effect: decreases proliferation in a dose-dependent manner
[2]; CC14, 0.1, 1 and 5 μM
  proliferation (BrdU incorporation), dose-effect: decreases proliferation in a dose-dependent manner
[3]; mCC11, 0.1, 1 and 5 μM
  proliferation (BrdU incorporation), dose-effect: decreases proliferation in a dose-dependent manner
[4]; CC36, 0.1, 1 and 5 μM
  proliferation (BrdU incorporation), dose-effect: decreases proliferation in a dose-dependent manner

## Avermectin B1
[1]; LS174T, 5 μM
  proliferation (percentage of BrdU incorporation compared to DMSO control): decreases to a minimum of half the proliferation
[2]; CC14, 5 μM
  proliferation (percentage of BrdU incorporation compared to DMSO control): decreases to a minimum of half the proliferation
[3]; mCC11, 5 μM
  proliferation (percentage of BrdU incorporation compared to DMSO control): decreases to a minimum of half the proliferation
Wnt pathway
  AXIN2 expression level as percentage compared to control cells: 62%
  C-MYC expression level as percentage compared to control cells: 35%
  EPHB2 expression level as percentage compared to control cells: 78%
  EPHB3 expression level as percentage compared to control cells: 55%
  EPNB1 expression level as percentage compared to control cells: 277%
  LGR5 expression level as percentage compared to control cells: 3%
  P21 expression level as percentage compared to control cells: 635%

## Ivermectin
[1]; LS174T, 0.5, 1, 2.5, 5 and 10 μM
  proliferation (BrdU incorporation), dose-effect: decreases proliferation in a dose-dependent manner
[2]; CC14, 0.5, 1, 2.5, 5 and 10 μM
  proliferation (BrdU incorporation), dose-effect: decreases proliferation in a dose-dependent manner
[3]; mCC11, 0.5, 1, 2.5, 5 and 10 μM
  proliferation (BrdU incorporation), dose-effect: decreases proliferation in a dose-dependent manner
[4]; CC36, 0.5, 1, 2.5, 5 and 10 μM
  proliferation (BrdU incorporation), dose-effect: decreases proliferation in a dose-dependent manner
[5]
  proliferation (BrdU incorporation), dose-effect: decreases proliferation in a dose-dependent manner
[6]
  proliferation (BrdU incorporation), dose-effect: decreases proliferation in a dose-dependent manner
[7]
  proliferation (BrdU incorporation), dose-effect: decreases proliferation in a dose-dependent manner
[8]
  proliferation (BrdU incorporation), dose-effect: decreases proliferation in a dose-dependent manner
[9]
  proliferation (BrdU incorporation), dose-effect: decreases proliferation in a dose-dependent manner
[10]
  colon cancer xenograft growth: able to inhibit colon cancer xenograft growth

## CO[C@H]1C[C@H](O[C@H]2[C@H](C)O[C@@H](O[C@@H]3/C(C)=C/C[C@@H]4C[C@@H](C[C@]5(C=C[C@H](C)[C@@H](C6CCCCC6)O5)O4)OC(=O)[C@@H]4C=C(C)[C@@H](O)[C@H]5OC/C(=C\C=C\[C@@H]3C)[C@]54O)C[C@@H]2OC)O[C@@H](C)[C@@H]1O [Doramectin, 25-cyclohexyl-5-O-demethyl-25-de(1-methylpropyl)avermectin A1a]
[1]; LS174T, 0.1, 1 and 5 μM
  proliferation (BrdU incorporation), dose-effect: decreases proliferation in a dose-dependent manner
